In the test the test system is human peripheral blood mononuclear cells (PBMCs). Put plainly: ELISA assay of immunocyte activator: induction of IFN-γ in human PBMCs. It is filed as cell-based. The conditions noted are these: 24 h, 37 °C, read-out: EC50 IFN-γ ratio (inducing human PBMCs to produce IFN-γ). Here is the method: The immune activity of each compound is represented by the function of inducing human peripheral blood mononuclear cells (PBMCs) to produce the immune cytokine IFN-γ by, and the EC50 values thereof are shown in Table 3.
• 1) Peripheral blood samples from healthy human volunteer were collected into heparin anticoagulant tubes to reach 5 mL of fresh blood, and PBS was added at a ratio of 1:1 to dilute the blood (2 mL+2 mL in conventional blood collection tubes). • 2) 5 mL of lymphocyte separation medium was put in a 15 mL sterile centrifuge tube for use. • 3) The diluted blood was aspirated and slowly added from 1 cm above the separation medium along the tube wall, so that the diluted blood overlaid the separation medium and formed a distinct interface therewith. • 4) The centrifuge tube was centrifuged at 2000 rpm at room temperature for 20 min. Now five layers formed in the centrifuge tube: the top layer was plasma layer, and the layer between the plasma layer and the lymphocyte separation medium was the lymphocyte layer as a white film. • 5) The mononuclear cell layer as a white film in the middle was aspirated carefully and mononuclear cells were aspirated as many as possible. The mononuclear cells were washed by more than 5 volumes of PBS twice, and each time, the mononuclear cells were centrifuged at 1500 rpm for 10 min. • 6) The supernatant was removed, then 1 mL of 1640 medium was added and mixed uniformly. A small amount of the mixture was taken for cell counting.
The prepared PBMCs were plated in a 96-well plate (Costar, 3894) (2×10^5 cells per well). Each compound in Table 3 was taken and added into the wells with plated cells at ten concentrations with uniform gradient distribution (0.0001-10 μM, diluted with […] medium containing […]).
Background: In an ELISA, binding on a coated surface is turned into a signal by an enzyme label.

The mark [1] stands for this setting: Homo sapiens, PBMC, no pretreatment marked.
The mark [2] stands for this setting: Homo sapiens, PBMC, Note c: sample pretreated with Cathepsin-B (10 μg) in PBS, room temperature, 3 h.
The mark [3] stands for this setting: Homo sapiens, PBMC, pH 6, 24 h, Note b: sample pretreated with equimolar glutathione, PBS pH 6, 37 °C.
Setting [4] is: Note a: sample pretreated with human liver microsomal enzyme, 2 h.

Read-outs that look alike come from different tables or passages of the source.

For the molecule `COCCOc1nc(N)c2[nH]c(=O)n(Cc3ccc(CNC(=O)CCC(=O)NC(CCCCNC(=O)OCc4ccc(NC(=O)[C@H](CCCNC(N)=O)NC(=O)[C@@H](NC(=O)CCCCCN5C(=O)C=CC5=O)C(C)C)cc4)C(=O)NCCOCCOCCOCCNC(=O)OC4CC/C=C/CCC4)cc3)c2n1` (some centres unmarked) [Compound K30], under setting [1], the EC50 was found to be 59 nM.
With `COCCOc1nc(N)c2[nH]c(=O)n(Cc3ccc(CNC(=O)CCC(=O)NC(CCCCc4cn(CCOCCOCCOCCNC(=O)CCOCCOCCNC(=O)OCC5C6CCC#CCCC65)nn4)C(=O)N[C@H](C(=O)N[C@@H](CCCNC(N)=O)C(=O)Nc4ccc(COC(=O)NC[C@H](C)c5ccc(-c6c(O)cc(C)c7[nH]c(=O)c8sccc8c67)cc5)cc4)C(C)C)cc3)c2n1` (some centres unmarked) [Compound K31], under setting [1], the EC50 turned out to be 29 nM.
For the molecule `C#Cc1c(F)ccc2cc(O)cc(-c3ncc4c(N5CC6CCC(C5)N6C(=O)OCc5ccc(NC(=O)[C@H](CCCNC(N)=O)NC(=O)[C@@H](NC(=O)C(CCCCc6cn(CCOCCOCCOCCNC(=O)CCN7C(=O)C=CC7=O)nn6)NC(=O)CCC(=O)NCc6ccc(Cn7c(=O)[nH]c8c(N)nc(OCCOC)nc87)cc6)C(C)C)cc5)nc(OC[C@@]56CCCN5C[C@H](F)C6)nc4c3F)c12` (some centres unmarked) [Compound K32], under setting [1], the EC50 came out at 160 nM.
As to `C#Cc1c(F)ccc2cc(O)cc(-c3c(Cl)cc4c(N5CC6CCC(C5)N6C(=O)OCc5ccc(NC(=O)[C@H](CCCNC(N)=O)NC(=O)[C@@H](NC(=O)C(CCCCc6cn(CCOCCOCCOCCNC(=O)CCN7C(=O)C=CC7=O)nn6)NC(=O)CCC(=O)NCc6ccc(Cn7c(=O)[nH]c8c(N)nc(OCCOC)nc87)cc6)C(C)C)cc5)nc(OC[C@@]56CCCN5C[C@H](F)C6)nc4c3F)c12` (some centres unmarked) [Compound K33], the EC50 under setting [1] was determined as 180 nM.
As to `CCCCOc1nc(N)c2[nH]c(=O)n(Cc3ccc(NC(=S)Nc4sc5c(c4C(=O)N[C@@H](CCCCNC(=O)OCc4ccc(NC(=O)[C@H](CCCNC(N)=O)NC(=O)[C@@H](NC(=O)CCCCCN6C(=O)C=CC6=O)C(C)C)cc4)C(=O)NCCOCCOCCOCCOCCNC(=O)CCC(=O)N4Cc6ccccc6C#Cc6ccccc64)CCCC5)cc3)c2n1` [Compound K34], the EC50 under setting [1] is 131 nM.
Same read-out and setting: the value for `C=CC(=O)Nc1cc(Nc2nccc(-c3cn(C)c4ccccc34)n2)c(OC)cc1N(C)CCN(C)CCCCCCNC(=O)C(CCCCc1cn(CCOCCOCCOCCNC(=O)CCC(=O)N2Cc3ccccc3C#Cc3ccccc32)nn1)NC(=O)CCC(=O)NCc1ccc(Cn2c(=O)[nH]c3c(N)nc(OCCOC)nc32)cc1` (centres unmarked) [Compound K35] was 260 nM; that for `C=CC(=O)Nc1cc(Nc2nccc(-c3cn(C)c4ccccc34)n2)c(OC)cc1N(C)CCN(C)CCCCCCNC(=O)[C@@H](CCCCn1cc(COCCOCCOCCOCCNC(=O)CCC(=O)N2Cc3ccccc3C#Cc3ccccc32)nn1)NC(=O)COCCOCCOCCn1cc(Cn2c(=O)[nH]c3c(N)nc(OCCCC)nc32)nn1` [Compound K36] was 110 nM.
`C=CC(=O)Nc1cc(Nc2nccc(-c3cn(C)c4ccccc34)n2)c(OC)cc1N(C)CCN(C)CCCCCCNC(=O)C(CCCCNC(=O)OCc1ccc(NC(=O)[C@H](CCCNC(N)=O)NC(=O)[C@@H](NC(=O)CCOCCOCCOCCOCCNC(=O)CCC(=O)N2Cc3ccccc3C#Cc3ccccc32)C(C)C)cc1)NC(=O)CCC(=O)NCc1ccc(Cn2c(=O)[nH]c3c(N)nc(OCCOC)nc32)cc1` (some centres unmarked) [Compound K37]: for the setting “no pretreatment marked”, the EC50 was determined as 220 nM.
Regarding `C=CC(=O)Nc1cc(Nc2nccc(-c3cn(C)c4ccccc34)n2)c(OC)cc1N(C)CCN(C)CCOCCOCCOCCn1cc(Cn2c(=O)n(C(=O)NCCNC(=O)OCc3ccc(NC(=O)[C@H](CCCNC(N)=O)NC(=O)[C@@H](NC(=O)CCOCCOCCOCCOCCNC(=O)CCC(=O)N4Cc5ccccc5C#Cc5ccccc54)C(C)C)cc3)c3c(N)nc(OCCCC)nc32)nn1` [Compound K38], the EC50 under setting [2] turned out to be 90 nM.
Turning to `C=C(CC(=O)OC)C(=O)NCc1ccc(Cn2c(=O)n(C(=O)NCCNC(=O)OCc3ccc(NC(=O)[C@H](CCCNC(N)=O)NC(=O)[C@@H](NC(=O)CCOCCOCCOCCOCCNC(=O)CCC(=O)N4Cc5ccccc5C#Cc5ccccc54)C(C)C)cc3)c3c(N)nc(OCCOC)nc32)cc1` [Compound K39], the EC50 under setting [2] stood at 1 nM.
Turning to `COCCOc1nc(N)c2[nH]c(=O)n(Cc3ccc(CNC(=O)CCC(=O)NC(CCCCc4cnnn4CCOCCOCCOCCN=C=S)C(=O)NCCCC(=O)Nc4ccc(C#CC#N)cc4)cc3)c2n1` (centres unmarked) [Compound K40], under setting [1], the EC50 was 1 nM.
As to `CCCCOc1nc(N)c2c(n1)n(CCCc1cn(CCOCCOCCOCCNC(=O)CCN3C(=O)C=CC3=O)nn1)c(=O)n2COC(=O)OC(C)C` [Compound K41], for the setting “Homo sapiens, PBMC, pH 5, 24 h, Note d: sample pretreated by hydrolysis, acetate buffer pH 5, 37 °C, 72 h”, the EC50 was 2 nM.
Take `CC[C@@]1(O)C(=O)OCc2c1cc1n(c2=O)Cc2c-1nc1cc(F)c(C)c3c1c2[C@@H](NC(=O)CNC(=O)OCn1c(=O)n(Cc2ccc(CNC(=O)CCc4cn(CCOCCOCCOCCNC(=O)CCN5C(=O)C=CC5=O)nn4)cc2)c2nc(OCCOC)nc(N)c21)CC3` [Compound K42]: where the note is “Homo sapiens, PBMC, Note d: sample pretreated by hydrolysis, acetate buffer pH 5, 37 °C, 72 h”, the EC50 worked out at 7 nM.
With `C=C(COC(=O)n1c(=O)n(CCCc2cn(CCOCCOCCOCCOCCN=[N+]=[N-])nn2)c2nc(OCCCC)nc(N)c21)C(=O)OCC` [Compound K44], the EC50 under setting [3] came out at 2 nM.
In the case of `C=C(COC(=O)n1c(=O)n(Cc2ccc(CNC(=O)CCc3cn(CCOCCOCCOCCOCCN=[N+]=[N-])nn3)cc2)c2nc(OCCOC)nc(N)c21)C(=O)OCC` [Compound K45], under setting [3], the EC50 turned out to be 10 nM.
Take `C=CC(=O)Nc1cc(Nc2nccc(-c3cn(C)c4ccccc34)n2)c(OC)cc1N(C)CCN(C)CCCCCCNC(=N)C(CCCCc1cn(CCOCCOCCOCCN=C=S)nn1)NC(=O)CCC(=O)NCc1ccc(Cn2c(=O)[nH]c3c(N)nc(OCCOC)nc32)cc1` (centres unmarked) [Compound K46]: the EC50 under setting [1] came out at 90 nM.
For the molecule `CCCCOc1nc(N)c2[nH]c(=O)n(Cc3ccc(NC(=S)Nc4sc5c(c4C(=O)NC(CCCCN=C=S)C(=O)NCCOCCOCCOCCOCCNC(=O)CCC(=O)N4Cc6ccccc6C#Cc6ccccc64)CCCC5)cc3)c2n1` (centres unmarked) [Compound K47], the EC50 under setting [1] was determined as 150 nM.
The same measure, in the same setting: for `COCCOc1nc(N)c2[nH]c(=O)n(Cc3ccc(CNC(=O)CCC(=O)NC(CCCCc4cn(CCOCCOCCOCCN=C=S)nn4)C(=O)NCCOCCOCCOCCNC(=O)OC4CC/C=C/CCC4)cc3)c2n1` (centres unmarked) [Compound K48] the value was 89 nM.
`C=C(CN1CCC(Cn2c(=O)[nH]c3c(N)nc(O[C@@H](C)CCC)nc32)CC1)C(=O)NCCOCCOCCOCCOCCNC(=O)CCC(=O)N1Cc2ccccc2C#Cc2ccccc21` [Compound K49]: under setting [1], the EC50 was 11 nM.
Still for that read-out and setting: for `C=C(CN1CCC(Cn2c(=O)[nH]c3c(N)nc(OCCCC)nc32)CC1)C(=O)NCCOCCOCCOCCOCCNC(=O)CCC(=O)N1Cc2ccccc2C#Cc2ccccc21` [Compound K50] the value was 23 nM.
In the case of `C=C(CN1CCC(Cn2c(=O)n(C(=O)NCCNC(=O)OCc3ccc(NC(=O)[C@H](CCCNC(N)=O)NC(=O)[C@@H](NC(=O)CCOCCOCCOCCOCCNC(=O)CCC(=O)N4Cc5ccccc5C#Cc5ccccc54)C(C)C)cc3)c3c(N)nc(O[C@@H](C)CCC)nc32)CC1)C(=O)OCC` [Compound K51], under setting [4], the EC50 was 2 nM.
As to `C=C(CN1CCC(Cn2c(=O)n(C(=O)NCCNC(=O)OCc3ccc(NC(=O)[C@H](CCCNC(N)=O)NC(=O)[C@@H](NC(=O)CCOCCOCCOCCOCCNC(=O)CCC(=O)N4Cc5ccccc5C#Cc5ccccc54)C(C)C)cc3)c3c(N)nc(OCCCC)nc32)CC1)C(=O)OCC` [Compound K52], the EC50 under setting [4] came to 120 nM.
Consider `C=C(CN1CCC(n2cc(Cn3c(=O)[nH]c4c(N)nc(O[C@@H](C)CCC)nc43)nn2)CC1)C(=O)NCCOCCOCCOCCOCCNC(=O)CCC(=O)N1Cc2ccccc2C#Cc2ccccc21` [Compound K54], for which the EC50 under setting [1] is 18 nM.
As to `C=C(CN1CCC(n2cc(Cn3c(=O)n(COC(=O)OCCOCCOCCOCCNC(=O)CCC(=O)N4Cc5ccccc5C#Cc5ccccc54)c4c(N)nc(O[C@@H](C)CCC)nc43)nn2)CC1)C(=O)OCC` [Compound K55], under setting [4], the EC50 was 21 nM.
Regarding `CCC[C@H](C)Oc1nc(N)c2c(n1)n(CC1CCN(C(=O)/C=C/C(=O)c3ccc(OC)cc3)CC1)c(=O)n2C(=O)NCCNC(=O)OCc1ccc(NC(=O)[C@H](CCCNC(N)=O)NC(=O)[C@@H](NC(=O)CCOCCOCCOCCOCCNC(=O)CCC(=O)N2Cc3ccccc3C#Cc3ccccc32)C(C)C)cc1` [Compound K57], the EC50 under setting [4] turned out to be 3 nM.
As to `CCCCOc1nc(N)c2c(n1)n(CC1CCN(C(=O)/C=C/C(=O)c3ccc(OC)cc3)CC1)c(=O)n2C(=O)NCCNC(=O)OCc1ccc(NC(=O)[C@H](CCCNC(N)=O)NC(=O)[C@@H](NC(=O)CCOCCOCCOCCOCCNC(=O)CCC(=O)N2Cc3ccccc3C#Cc3ccccc32)C(C)C)cc1` [Compound K58], the EC50 under setting [4] worked out at 9 nM.
